# Several values for one entry are separate records, joined by “and”; a condition that tells them apart may be missing. Equal values may be shown once. Read-outs that look alike come from different tables or passages of the source.
# Legend:
# [1] = target: CYP2D6 (Homo sapiens, UniProt P10635); test: Inhibition of CYP2D6 activity in pooled human liver microsomes (dextromethorphan 5 μM to dextrorphan); format: in vitro ADME
# Protocol: All other incubations were for 30 minutes.
# Four replicates were performed.
# Two replicates were performed.
# [2] = tested on: CYP2A6; test: Induction/inhibition of CYP2A6 activity in cryopreserved human hepatocytes (coumarin); format: in vitro ADME
# Source text: Hepatocytes from three human donors were obtained from a cryopreserved hepatocyte bank (In Vitro Technologies, Inc., USA). After thawing, viable hepatocytes were transferred to collagen-coated 48-well plates for attachment in plating medium (DMEM stock (Dulbecco's modified Eagle's medium, supplemented with bovine serum albumin, fructose, N-(2-hydroxyethyl)piperazine-N′-(2-ethanesulfonate) (HEPES), and sodium bicarbonate), supplemented with antibiotics, bovine serum, hydrocortisone, insulin and minimum essential medium (MEM) nonessential amino acids). After attachment to the collagen matrix, plating medium was replaced with sandwich medium (plating medium supplemented with VITROGEN) and incubated until use.
# The supplemented KHB was replaced with 150 μL supplemented KHB containing the appropriate isoform-selective substrate and incubated for 4 hrs prior to termination by adding 150 μL ice-cold methanol, except for the CYP2C8 incubations which were terminated by adding 150 μL acetonitrile.
# All substrates were dissolved in acetonitrile.
# Replicate trials and controls were performed. […] Additionally, reference control samples were included to evaluate inducibility of CYP2B6, CYP2C9, and CYP2C19 in the test system.
# Mean specific activity values with associated p-values≦0.05 were deemed to be statistically significant.
# [3] = target: T1, CYP2C8 (Homo sapiens, UniProt P10632); settings: both, pH 7.4; for Mean Conc.: 60 min; for % Turnover Mean: microsomes, 1 h
# T1 sequence (P10632 1-490): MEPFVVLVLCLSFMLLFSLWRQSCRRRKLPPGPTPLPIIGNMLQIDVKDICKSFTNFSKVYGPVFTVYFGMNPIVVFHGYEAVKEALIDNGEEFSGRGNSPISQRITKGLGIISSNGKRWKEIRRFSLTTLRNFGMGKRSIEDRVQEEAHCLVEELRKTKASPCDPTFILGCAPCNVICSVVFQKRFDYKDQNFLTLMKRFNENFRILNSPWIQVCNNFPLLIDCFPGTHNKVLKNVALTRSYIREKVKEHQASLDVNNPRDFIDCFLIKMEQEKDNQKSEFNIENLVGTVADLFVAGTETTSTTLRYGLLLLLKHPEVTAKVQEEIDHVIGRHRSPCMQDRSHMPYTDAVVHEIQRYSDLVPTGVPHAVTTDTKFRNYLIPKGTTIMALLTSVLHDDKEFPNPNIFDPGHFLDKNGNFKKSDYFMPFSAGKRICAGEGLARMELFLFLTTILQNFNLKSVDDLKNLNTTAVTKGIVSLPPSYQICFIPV
# Protocol: (§1) Human liver microsomes pooled from 15 individuals (male and female) (Pool HMMC-PL020; CellzDirect, Inc., In Vitro Products and Services Division) were used in some experiments of this study.
# (§2) % Turnover=100−{[TA(final)]/[mean of TA(0 min)]}×100,
# (§3) % Inhibition of Turnover=100{1−([TA(0 min)]−[TA(final-inhibitor)])/([TA(0 min)]−[TA(final-no inhibitor)])}.
# (§4) The inhibitors or vehicle control were incubated with the pooled human liver microsomes (1 mg/mL) and NADPH (1 mM) in 0.1 M phosphate buffer, pH 7.4. […] Incubations were conducted in triplicate and terminated by addition of organic solvent. Samples were extracted and analyzed by LC-MS/MS as described above.
# [4] = target: CYP3A4 (Homo sapiens, UniProt P08684); test: Metabolism of metaxalone by expressed recombinant human CYP3A4 at 5 or 20 pmol (Example 4); settings: for percent turnover / % Turnover Mean / [metaxalone] Mean / % Turnover % / [metaxalone]: 60 min; for % Turnover % / [metaxalone]: single replicates, listed as Metaxalone
# CYP3A4, sequence (P08684 2-503 limits assumed): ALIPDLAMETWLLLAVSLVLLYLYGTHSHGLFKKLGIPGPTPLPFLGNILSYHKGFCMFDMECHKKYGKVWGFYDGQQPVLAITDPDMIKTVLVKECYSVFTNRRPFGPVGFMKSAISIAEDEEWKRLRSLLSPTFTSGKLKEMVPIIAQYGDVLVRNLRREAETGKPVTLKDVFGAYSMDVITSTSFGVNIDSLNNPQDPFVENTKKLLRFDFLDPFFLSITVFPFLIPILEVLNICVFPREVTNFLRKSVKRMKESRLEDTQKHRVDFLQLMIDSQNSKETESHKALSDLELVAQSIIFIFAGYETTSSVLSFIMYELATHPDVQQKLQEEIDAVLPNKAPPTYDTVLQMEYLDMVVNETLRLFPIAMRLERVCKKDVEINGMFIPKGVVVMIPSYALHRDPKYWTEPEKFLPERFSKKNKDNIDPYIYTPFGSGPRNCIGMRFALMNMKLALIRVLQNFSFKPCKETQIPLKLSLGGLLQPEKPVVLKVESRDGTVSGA
# [5] = target: CYP2C19 (Homo sapiens, UniProt P33261); test: Chemical inhibition of metaxalone turnover in human liver microsomes, CYP2C19 inhibitor ticlopidine; settings: 1 mg/mL HLM, 60 min, with ticlopidine; for % Turnover / % inhibition of turnover / Conc.: single replicates
# CYP2C19, sequence (P33261 whole entry): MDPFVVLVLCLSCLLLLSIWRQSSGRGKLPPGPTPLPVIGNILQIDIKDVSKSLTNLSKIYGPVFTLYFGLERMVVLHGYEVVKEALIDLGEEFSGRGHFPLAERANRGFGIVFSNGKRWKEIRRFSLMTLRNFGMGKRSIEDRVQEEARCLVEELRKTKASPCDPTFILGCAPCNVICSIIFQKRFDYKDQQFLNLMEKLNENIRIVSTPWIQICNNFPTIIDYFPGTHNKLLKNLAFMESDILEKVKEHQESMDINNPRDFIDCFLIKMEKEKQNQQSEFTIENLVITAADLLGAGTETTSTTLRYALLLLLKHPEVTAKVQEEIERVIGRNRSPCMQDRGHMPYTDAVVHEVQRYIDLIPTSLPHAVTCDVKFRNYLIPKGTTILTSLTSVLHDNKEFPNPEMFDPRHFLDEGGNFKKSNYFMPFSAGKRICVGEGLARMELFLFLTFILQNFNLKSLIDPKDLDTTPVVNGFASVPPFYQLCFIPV
# Protocol: as §1, §2, §3, §4
# [6] = target: CYP2E1 (Homo sapiens, UniProt P05181); test: Chemical inhibition of metaxalone turnover in human liver microsomes, CYP2E1 inhibitor clomethiazole; settings: 1 mg/mL HLM, 60 min, with clomethiazole; for % Turnover / % inhibition of turnover / Conc.: single replicates
# CYP2E1, sequence (P05181 whole entry): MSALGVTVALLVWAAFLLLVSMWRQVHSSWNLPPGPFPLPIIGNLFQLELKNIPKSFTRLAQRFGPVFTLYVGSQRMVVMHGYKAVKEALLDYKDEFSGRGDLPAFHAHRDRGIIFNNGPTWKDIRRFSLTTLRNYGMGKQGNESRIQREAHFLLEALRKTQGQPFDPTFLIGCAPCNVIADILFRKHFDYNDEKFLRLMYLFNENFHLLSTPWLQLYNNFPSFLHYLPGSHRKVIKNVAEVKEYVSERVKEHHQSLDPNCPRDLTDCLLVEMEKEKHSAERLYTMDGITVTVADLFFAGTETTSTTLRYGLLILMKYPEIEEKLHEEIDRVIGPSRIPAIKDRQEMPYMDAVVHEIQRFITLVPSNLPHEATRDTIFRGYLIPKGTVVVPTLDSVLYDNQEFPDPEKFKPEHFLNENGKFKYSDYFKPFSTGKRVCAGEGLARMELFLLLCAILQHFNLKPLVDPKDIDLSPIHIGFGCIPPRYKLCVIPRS
# Protocol: as §1, §2, §3, §4
# [7] = 0.75 μM metaxalone, 20 pmol cyp
# CYP2D6, sequence (P10635 whole entry): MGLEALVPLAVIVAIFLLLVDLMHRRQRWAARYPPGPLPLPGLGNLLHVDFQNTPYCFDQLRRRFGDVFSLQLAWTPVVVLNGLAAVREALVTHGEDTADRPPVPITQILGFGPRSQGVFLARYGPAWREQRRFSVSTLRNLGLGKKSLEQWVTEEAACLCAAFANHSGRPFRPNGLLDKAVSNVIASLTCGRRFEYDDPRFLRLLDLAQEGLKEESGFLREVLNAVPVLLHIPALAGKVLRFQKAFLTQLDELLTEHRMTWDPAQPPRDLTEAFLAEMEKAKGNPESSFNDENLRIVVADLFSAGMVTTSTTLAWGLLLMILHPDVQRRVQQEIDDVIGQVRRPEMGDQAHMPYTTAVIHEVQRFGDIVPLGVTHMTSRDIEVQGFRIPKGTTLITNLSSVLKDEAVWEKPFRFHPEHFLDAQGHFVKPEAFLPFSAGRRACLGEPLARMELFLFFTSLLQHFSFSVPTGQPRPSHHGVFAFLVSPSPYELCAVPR
smiles,measurement,setting,value
"Cc1cc(C)cc(OCC2CNC(=O)O2)c1 (stereo not shown) [metaxalone, 5-[(3,5-dimethylphenoxy)methyl]-2-oxazolidinone]",inhibition of CYP activity at a statistically significant level,"[1]; 0.3-100 μM metaxalone, p≦0.05",inhibited
same,Inhibitor,"[1]; CYP isozyme 2D6, summary of studies",+
same,Percent of VC,[1]; metaxalone 0.3 μM,81.3%
same,Specific Activity Individual,[1]; metaxalone 0.3 μM,39.5 pmol/min/mg protein and 39.2 pmol/min/mg protein and 40.5 pmol/min/mg protein
same,Specific Activity Mean ± SD,[1]; metaxalone 0.3 μM,39.8 ± 0.688 pmol/min/mg protein
same,Percent of VC,[1]; metaxalone 1 μM,84.2%
same,Specific Activity Individual,[1]; metaxalone 1 μM,42.4 pmol/min/mg protein and 41.3 pmol/min/mg protein
same,Specific Activity Mean ± SD,[1]; metaxalone 1 μM,41.2 ± 1.28 pmol/min/mg protein
same,Percent of VC,[1]; metaxalone 3 μM,89.3%
same,Specific Activity Individual,[1]; metaxalone 3 μM,43.0 pmol/min/mg protein and 44.8 pmol/min/mg protein
same,Specific Activity Mean ± SD,[1]; metaxalone 3 μM,43.7 ± 0.940 pmol/min/mg protein
same,Percent of VC,[1]; metaxalone 30 μM,85.1%
same,Specific Activity Individual,[1]; metaxalone 30 μM,41.4 pmol/min/mg protein and 42.6 pmol/min/mg protein and 40.9 pmol/min/mg protein
same,Specific Activity Mean ± SD,[1]; metaxalone 30 μM,41.6 ± 0.893 pmol/min/mg protein
same,Percent of VC,[1]; metaxalone 100 μM,85.9%
same,Specific Activity Individual,[1]; metaxalone 100 μM,42.6 pmol/min/mg protein and 41.3 pmol/min/mg protein and 42.2 pmol/min/mg protein
same,Specific Activity Mean ± SD,[1]; metaxalone 100 μM,42.0 ± 0.680 pmol/min/mg protein
same,Inducer/Inhibitor,"[2]; CYP isozyme 2A6, summary of studies",0
same,Percent of VC,"[2]; Donor 1, Metaxalone 0.4 μM",100%
same,Specific Activity Individual,"[2]; Donor 1, Metaxalone 0.4 μM",<2.68 pmol/min/million cells
same,Specific Activity Mean ± SD,"[2]; Donor 1, Metaxalone 0.4 μM",<2.68 ± 0.000 pmol/min/million cells
same,Percent of VC,"[2]; Donor 1, Metaxalone 4 μM",100%
same,Specific Activity Individual,"[2]; Donor 1, Metaxalone 4 μM",<2.68 pmol/min/million cells
same,Specific Activity Mean ± SD,"[2]; Donor 1, Metaxalone 4 μM",<2.68 ± 0.000 pmol/min/million cells
same,Percent of VC,"[2]; Donor 1, Metaxalone 40 μM",100%
same,Specific Activity Individual,"[2]; Donor 1, Metaxalone 40 μM",<2.68 pmol/min/million cells
same,Specific Activity Mean ± SD,"[2]; Donor 1, Metaxalone 40 μM",<2.68 ± 0.000 pmol/min/million cells
same,Percent of VC,"[2]; Donor 2, Metaxalone 0.4 μM",100%
same,Specific Activity Individual,"[2]; Donor 2, Metaxalone 0.4 μM",<2.68 pmol/min/million cells
same,Specific Activity Mean ± SD,"[2]; Donor 2, Metaxalone 0.4 μM",<2.68 ± 0.000 pmol/min/million cells
same,Percent of VC,"[2]; Donor 2, Metaxalone 4 μM",100%
same,Specific Activity Individual,"[2]; Donor 2, Metaxalone 4 μM",<2.68 pmol/min/million cells
same,Specific Activity Mean ± SD,"[2]; Donor 2, Metaxalone 4 μM",<2.68 ± 0.000 pmol/min/million cells
same,Percent of VC,"[2]; Donor 2, Metaxalone 40 μM",100%
same,Specific Activity Individual,"[2]; Donor 2, Metaxalone 40 μM",<2.68 pmol/min/million cells
same,Specific Activity Mean ± SD,"[2]; Donor 2, Metaxalone 40 μM",<2.68 ± 0.000 pmol/min/million cells
same,Percent of VC,"[2]; Donor 3, Metaxalone 0.4 μM",100%
same,Specific Activity Individual,"[2]; Donor 3, Metaxalone 0.4 μM",<2.68 pmol/min/million cells
same,Specific Activity Mean ± SD,"[2]; Donor 3, Metaxalone 0.4 μM",<2.68 ± 0.000 pmol/min/million cells
same,Percent of VC,"[2]; Donor 3, Metaxalone 4 μM",100%
same,Specific Activity Individual,"[2]; Donor 3, Metaxalone 4 μM",<2.68 pmol/min/million cells
same,Specific Activity Mean ± SD,"[2]; Donor 3, Metaxalone 4 μM",<2.68 ± 0.000 pmol/min/million cells
same,Percent of VC,"[2]; Donor 3, Metaxalone 40 μM",100%
same,Specific Activity Individual,"[2]; Donor 3, Metaxalone 40 μM",<2.68 pmol/min/million cells
same,Specific Activity Mean ± SD,"[2]; Donor 3, Metaxalone 40 μM",<2.68 ± 0.000 pmol/min/million cells
same,effects on CYP activity,"[2]; any of the tested concentrations (0.4, 4.0, 40 μM)",no significant effects
same,Mean Conc.,[3]; 0.75 μM,0.719 µM
same,Mean Conc.,[3]; 7.5 μM,8.19 µM
same,% Turnover Mean,[3]; 0.75 μM,6.78%
same,% Turnover Mean,[3]; 7.5 μM,3.77%
same,percent turnover,"[4]; 0.75 μM metaxalone, 5 pmol CYP450",17.9%
same,% Turnover Mean,"[4]; 0.75 μM metaxalone, 5 pmol cyp",17.9%
same,[metaxalone] Mean,"[4]; 0.75 μM metaxalone, 5 pmol cyp",0.585 µM
same,% Turnover %,"[4]; 0.75 μM metaxalone, 5 pmol cyp",20.3% and 18.3% and 15.0%
same,[metaxalone],"[4]; 0.75 μM metaxalone, 5 pmol cyp",0.567 µM and 0.582 µM and 0.605 µM
same,percent turnover,"[4]; 0.75 μM metaxalone, 20 pmol CYP450",34.0%
same,% Turnover Mean,[4]; [7],34.0%
same,[metaxalone] Mean,[4]; [7],0.470 µM
same,% Turnover %,[4]; [7],31.7% and 39.0% and 31.4%
same,[metaxalone],[4]; [7],0.486 µM and 0.434 µM and 0.488 µM
same,percent turnover,"[4]; 7.5 μM metaxalone, 5 pmol CYP450",16.6%
same,% Turnover Mean,"[4]; 7.5 μM metaxalone, 5 pmol cyp",16.6%
same,[metaxalone] Mean,"[4]; 7.5 μM metaxalone, 5 pmol cyp",6.43 µM
same,% Turnover %,"[4]; 7.5 μM metaxalone, 5 pmol cyp",17.5% and 16.7% and 15.7%
same,[metaxalone],"[4]; 7.5 μM metaxalone, 5 pmol cyp",6.36 µM and 6.43 µM and 6.50 µM
same,percent turnover,"[4]; 7.5 μM metaxalone, 20 pmol CYP450",32.4%
same,% Turnover Mean,"[4]; 7.5 μM metaxalone, 20 pmol cyp",32.4%
same,[metaxalone] Mean,"[4]; 7.5 μM metaxalone, 20 pmol cyp",5.22 µM
same,% Turnover %,"[4]; 7.5 μM metaxalone, 20 pmol cyp",34.3% and 32.8% and 30.0%
same,[metaxalone],"[4]; 7.5 μM metaxalone, 20 pmol cyp",5.07 µM and 5.18 µM and 5.40 µM
same,Substrate,"[4]; CYP isozyme 3A4, summary of studies",+
same,% Turnover Mean,[5]; 0.75 μM metaxalone,8.16%
same,% inhibition of turnover Mean,[5]; 0.75 μM metaxalone,72.6%
same,Mean Conc.,[5]; 0.75 μM metaxalone,0.709 µM
same,% Turnover,[5]; 0.75 μM metaxalone,9.6% and 7.5% and 7.4%
same,% inhibition of turnover,[5]; 0.75 μM metaxalone,67.9% and 74.7% and 75.2%
same,Conc.,[5]; 0.75 μM metaxalone,0.698 µM and 0.714 µM and 0.715 µM
same,% Turnover Mean,[5]; 7.5 μM metaxalone,1.71%
same,% inhibition of turnover Mean,[5]; 7.5 μM metaxalone,93.1%
same,Mean Conc.,[5]; 7.5 μM metaxalone,8.37 µM
same,% Turnover,[5]; 7.5 μM metaxalone,5.8% and 11.0% and −11.6%
same,% inhibition of turnover,[5]; 7.5 μM metaxalone,76.5% and 55.5% and 147%
same,Conc.,[5]; 7.5 μM metaxalone,8.02 µM and 7.58 µM and 9.50 µM
same,% inhibition of turnover Mean,[6]; 0.75 μM metaxalone,113%
same,Mean Conc.,[6]; 0.75 μM metaxalone,0.802 µM
same,% Turnover,[6]; 0.75 μM metaxalone,5.6%
same,% inhibition of turnover,[6]; 0.75 μM metaxalone,104% and 154% and 81.4%
same,Conc.,[6]; 0.75 μM metaxalone,0.780 µM and 0.896 µM and 0.729 µM
same,% Turnover Mean,[6]; 7.5 μM metaxalone,0.356%
same,% inhibition of turnover Mean,[6]; 7.5 μM metaxalone,98.6%
same,Mean Conc.,[6]; 7.5 μM metaxalone,8.48 µM
same,% Turnover,[6]; 7.5 μM metaxalone,2.7%
same,% inhibition of turnover,[6]; 7.5 μM metaxalone,89.2% and 101% and 105%
same,Conc.,[6]; 7.5 μM metaxalone,8.29 µM and 8.54 µM and 8.63 µM

# Source: patent US20080292584A1 (priority 2005, published 2008)
